ChEMBL document CHEMBL5528048, “Discovery of Novel Potent and Fast BTK PROTACs for the Treatment of Osteoclasts-Related Inflammatory Diseases” (J Med Chem, 2024)
The source made the active and inactive calls. The calls are words filed in the database; no cut-off is given here.

Columns and labels:
[1] = biological target: T1, Protein cereblon/Tyrosine-protein kinase BTK (Mus musculus) (UniProt P35991+Q8C7D2); assay: PROTAC activity at BTK/CRBN in mCSF/RANKL-stimulated C57BL/6J mouse BMDM assessed as reduction in phosphorylated ERK protein level at 25 to 100 nM followed by stimulated with mCSF/RANKL measured after 2 hrs by Western blotting analysis; format: cell-based; details: dose 25-100 nM
T1 sequence (P35991 whole entry, looked up): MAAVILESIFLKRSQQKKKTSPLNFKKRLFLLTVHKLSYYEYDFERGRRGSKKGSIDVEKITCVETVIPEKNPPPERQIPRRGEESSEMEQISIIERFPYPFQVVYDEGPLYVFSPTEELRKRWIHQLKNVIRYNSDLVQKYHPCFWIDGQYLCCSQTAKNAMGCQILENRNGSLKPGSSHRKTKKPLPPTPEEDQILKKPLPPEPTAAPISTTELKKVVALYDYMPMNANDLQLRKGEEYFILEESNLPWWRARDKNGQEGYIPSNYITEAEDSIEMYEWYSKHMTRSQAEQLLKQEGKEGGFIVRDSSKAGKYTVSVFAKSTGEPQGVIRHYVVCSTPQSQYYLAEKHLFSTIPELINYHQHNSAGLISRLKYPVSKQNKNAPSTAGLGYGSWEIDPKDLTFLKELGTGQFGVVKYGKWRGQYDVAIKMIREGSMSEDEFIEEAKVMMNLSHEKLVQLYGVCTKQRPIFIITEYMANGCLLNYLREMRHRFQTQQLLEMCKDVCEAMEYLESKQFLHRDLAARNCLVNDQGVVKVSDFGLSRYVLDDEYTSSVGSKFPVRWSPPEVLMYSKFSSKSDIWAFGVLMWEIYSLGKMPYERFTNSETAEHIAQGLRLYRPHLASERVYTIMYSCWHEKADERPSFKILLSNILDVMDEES
T1 sequence (Q8C7D2 whole entry, looked up): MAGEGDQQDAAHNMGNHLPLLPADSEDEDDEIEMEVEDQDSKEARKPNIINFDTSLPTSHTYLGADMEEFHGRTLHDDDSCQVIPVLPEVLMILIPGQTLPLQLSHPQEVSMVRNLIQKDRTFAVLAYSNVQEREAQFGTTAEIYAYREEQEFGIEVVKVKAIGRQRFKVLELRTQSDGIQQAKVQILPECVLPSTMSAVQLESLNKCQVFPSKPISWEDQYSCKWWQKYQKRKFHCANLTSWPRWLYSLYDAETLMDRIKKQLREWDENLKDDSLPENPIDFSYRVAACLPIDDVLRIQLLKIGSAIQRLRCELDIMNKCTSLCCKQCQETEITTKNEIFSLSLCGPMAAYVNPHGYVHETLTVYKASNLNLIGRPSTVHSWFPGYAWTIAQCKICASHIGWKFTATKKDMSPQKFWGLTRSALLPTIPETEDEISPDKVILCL

[2] = Apparent volume of distribution in Sprague-Dawley rat at 2 mg/kg, iv measured upto 48 hrs; format: ADME, organism-based; details: in vivo, read-out: Vz
Mus musculus [3] = assay: (§1) Antiosteoclastogenic effects in LPS-soaked ligature-induced C57BL/6J mouse periodontal disease model assessed as reduction in periodontal alveolar bone loss by measuring distance between the alveolar bone crest (ABC) at 10 to 30 mg/kg, ip treated on day 0, 1,4, 7 and measured on day 10 by Micro-CT 3D scan; format: functional, organism-based; details: dose 10-30 mg/kg, time 7.0 day
[4] = biological target: T2, Protein cereblon/Tyrosine-protein kinase BTK (Homo sapiens, UniProt Q06187+Q96SW2); assay: PROTAC activity at BTK/CRBN in human MINO cells assessed as BTK protein degradation half life at 20 nM by Western blotting analysis; format: cell-based
T2 sequence (Q06187 2-659 limits assumed): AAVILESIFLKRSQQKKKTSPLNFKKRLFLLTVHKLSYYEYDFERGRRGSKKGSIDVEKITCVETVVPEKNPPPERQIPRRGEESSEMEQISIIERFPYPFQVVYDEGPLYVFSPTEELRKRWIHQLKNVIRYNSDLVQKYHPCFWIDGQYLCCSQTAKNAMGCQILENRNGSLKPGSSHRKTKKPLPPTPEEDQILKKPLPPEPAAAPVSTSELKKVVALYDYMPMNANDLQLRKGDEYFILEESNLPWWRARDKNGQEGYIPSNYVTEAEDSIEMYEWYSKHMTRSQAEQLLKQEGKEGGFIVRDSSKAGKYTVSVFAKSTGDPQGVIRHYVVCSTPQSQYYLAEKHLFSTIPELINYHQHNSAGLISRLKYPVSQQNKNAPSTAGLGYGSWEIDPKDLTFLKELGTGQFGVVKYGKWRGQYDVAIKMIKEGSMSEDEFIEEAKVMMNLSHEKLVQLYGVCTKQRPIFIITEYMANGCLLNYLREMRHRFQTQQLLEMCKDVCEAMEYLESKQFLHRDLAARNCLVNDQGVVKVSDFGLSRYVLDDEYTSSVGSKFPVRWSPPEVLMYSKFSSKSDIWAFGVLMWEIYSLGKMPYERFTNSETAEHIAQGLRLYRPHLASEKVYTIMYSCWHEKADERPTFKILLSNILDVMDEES
T2 sequence (Q96SW2 whole entry partner): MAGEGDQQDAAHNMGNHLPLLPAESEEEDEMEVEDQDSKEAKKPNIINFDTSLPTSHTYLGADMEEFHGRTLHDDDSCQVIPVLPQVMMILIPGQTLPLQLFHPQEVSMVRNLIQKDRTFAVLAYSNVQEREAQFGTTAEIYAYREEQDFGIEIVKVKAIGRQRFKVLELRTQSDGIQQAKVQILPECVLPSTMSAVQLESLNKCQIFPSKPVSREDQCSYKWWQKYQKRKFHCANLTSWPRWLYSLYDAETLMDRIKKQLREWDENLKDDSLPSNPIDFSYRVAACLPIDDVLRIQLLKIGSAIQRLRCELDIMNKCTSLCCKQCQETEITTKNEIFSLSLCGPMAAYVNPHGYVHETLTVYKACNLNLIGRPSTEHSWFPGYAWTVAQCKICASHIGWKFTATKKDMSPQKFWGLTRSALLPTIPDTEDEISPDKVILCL

[5] = biological target: T2, Protein cereblon/Tyrosine-protein kinase BTK; assay: Binding affinity to BTK/CRBN (unknown origin) assessed as ternary complex formation by measuring peak HTRF ratio at wavelength 665/620 nm measured after 60 mins incubation by HTRF assay
[6] = biological target: T1, Protein cereblon/Tyrosine-protein kinase BTK (Mus musculus); assay: PROTAC activity at BTK/CRBN in C57BL/6J mouse BMDM assessed as reduction in mCSF/RANKL-stimulated intracellular calcium influx by measuring fluorescence intensity measured after 2 hrs by Fluo-4/AM-fluorescent assay; format: cell-based; details: dose 25-100 nM
[7] = biological target: T1, Protein cereblon/Tyrosine-protein kinase BTK (Mus musculus); assay: PROTAC activity at BTK/CRBN in mCSF/RANKL-stimulated C57BL/6J mouse BMDM assessed as reduction in phosphorylated JNK protein level at 25 to 100 nM followed by stimulated with mCSF/RANKL measured after 2 hrs by Western blotting analysis; format: cell-based; details: dose 25-100 nM
[8] = biological target: T1, Protein cereblon/Tyrosine-protein kinase BTK (Mus musculus); assay: PROTAC activity at BTK/CRBN in mCSF/RANKL-stimulated C57BL/6J mouse BMDM assessed as reduction in phosphorylated BTK protein level at 25 to 100 nM followed by stimulated with mCSF/RANKL measured after 2 hrs by Western blotting analysis; format: cell-based; details: dose 25-100 nM
[9] = biological target: T1, Protein cereblon/Tyrosine-protein kinase BTK (Mus musculus); assay: PROTAC activity at BTK/CRBN in C57BL/6J mouse BMM cells assessed as reduction in mCSF/RANKL-stimulated NFATc1 protein expression at 25 to 100 nM followed by stimulated with mCSF/RANKL measured after 2 hrs by Western blot analysis; format: cell-based; details: BMDM, dose 25-100 nM
Protein cereblon = Protein cereblon (Homo sapiens, UniProt Q96SW2); assay: Inhibition of CRBN (unknown origin) measured after 60 mins incubation by BMG reader
Chain of Protein cereblon (Q96SW2 whole entry): as the sequence (Q96SW2 whole entry partner) above

[10] = biological target: T2, Protein cereblon/Tyrosine-protein kinase BTK; assay: PROTAC activity at BTK/CRBN in human MINO cells assessed as BTK protein degradation at 20 nM by Western blotting analysis; format: cell-based; details: time lower 2.0 hrs, time upper […], TDE = time-dependent effect
[11] = Cmax in Sprague-Dawley rat at 4 mg/kg, ip measured upto 48 hrs; format: ADME, organism-based; details: in vivo
[12] = AUC (0 to t) in Sprague-Dawley rat at 4 mg/kg, ip measured upto 48 hrs; format: ADME, organism-based; details: in vivo
[13] = biological target: Tyrosine-protein kinase BTK (Homo sapiens, UniProt Q06187); assay: Binding affinity to BTK (unknown origin) assessed as inhibition constant measured after 60 mins incubation by microtiter-plate reader
Chain of Tyrosine-protein kinase BTK (Q06187 whole entry): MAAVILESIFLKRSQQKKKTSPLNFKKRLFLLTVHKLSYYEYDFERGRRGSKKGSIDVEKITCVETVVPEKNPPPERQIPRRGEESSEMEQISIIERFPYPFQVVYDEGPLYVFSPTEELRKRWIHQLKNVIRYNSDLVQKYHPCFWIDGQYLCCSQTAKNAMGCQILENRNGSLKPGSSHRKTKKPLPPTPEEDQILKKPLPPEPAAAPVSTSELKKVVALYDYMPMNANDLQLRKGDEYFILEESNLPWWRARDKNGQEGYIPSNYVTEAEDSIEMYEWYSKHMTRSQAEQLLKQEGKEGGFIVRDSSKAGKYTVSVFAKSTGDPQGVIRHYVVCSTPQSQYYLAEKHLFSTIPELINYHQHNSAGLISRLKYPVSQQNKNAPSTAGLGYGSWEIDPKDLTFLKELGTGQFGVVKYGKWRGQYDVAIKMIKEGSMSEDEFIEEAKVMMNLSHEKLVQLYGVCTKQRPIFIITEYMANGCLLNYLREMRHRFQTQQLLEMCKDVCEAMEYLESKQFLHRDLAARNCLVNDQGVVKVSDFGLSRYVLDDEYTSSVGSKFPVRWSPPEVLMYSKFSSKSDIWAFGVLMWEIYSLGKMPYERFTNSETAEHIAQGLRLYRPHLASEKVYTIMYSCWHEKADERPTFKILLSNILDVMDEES

[14] = biological target: T2, Protein cereblon/Tyrosine-protein kinase BTK; assay: PROTAC activity at BTK/CRBN in human MINO cells assessed as BTK protein degradation by measuring onset time activity at 20 nM by Western blotting analysis; format: cell-based
[15] = biological target: T2, Protein cereblon/Tyrosine-protein kinase BTK; assay: PROTAC activity at BTK/CRBN in human MINO cells assessed as BTK protein degradation pretreated with 2 uM bafilomycin followed by 1 hr treated at 20 nM measured after 48 hrs by Western blotting analysis; format: cell-based; details: dose […]
[16] = biological target: T1, Protein cereblon/Tyrosine-protein kinase BTK (Mus musculus); assay: PROTAC activity at BTK/CRBN in mCSF/RANKL-stimulated C57BL/6J mouse BMDM assessed as reduction in phosphorylated NFkappa-p65 protein level at 25 to 100 nM followed by stimulated with mCSF/RANKL measured after 2 hrs by Western blotting analysis; format: cell-based; details: dose 25-100 nM
Mus musculus [17] = assay: as §1, with “cemento-enamel junction (CEJ)” for “alveolar bone crest (ABC)”; format: functional, organism-based; details: dose 10-30 mg/kg, time 7.0 day

SMILES: Cc1cc(-c2nc(Nc3cnn(C4CCN(CC5CCN(c6ccc7c(c6)C(=O)N(C6CCC(=O)NC6=O)C7=O)CC5)CC4)c3)ncc2F)ccc1CNC(=O)c1cn(C(C)(C)C)nn1 (stereo not drawn)
- Activity [1]: Active
- Vd [2]: 9.29 L/kg
- Activity (Mus musculus [3]): Active
- T1/2 [4]: 35.4 min
- Ratio [5]: 8.59
- Activity [6]: Dose-Dependent Effect
- Activity [7]: Active
- Activity [8]: Active
- Activity [9]: Active
- IC50 (Protein cereblon): 248 nM
- Activity [10]: Tde
- Cmax [11]: 184 ng/mL
- AUC(0-t) at 48 h [12]: 2800 ng·h/mL
- Ki [13]: 152 nM
- TIME [14]: < 0.5 h
- Activity [15]: inactive
- Activity [16]: Active
- Activity (Mus musculus [17]): Active
